Data on eight compounds can be found in US20230017045A1, “PYRIDINE AND PYRIMIDINE CARBOXYLATE HERBICIDES AND METHODS OF USE THEREOF” (Dow AgroSciences LLC, priority 2017, published 2023).

Where two headings read alike, the source gives them in different places.

In this assay the test system is test plant species. As to the kind of experiment: Post-emergent herbicidal activity test (greenhouse, foliar spray, visual growth reduction). Format: in vivo. The conditions noted are these: post-emergence, 336 h, 140 g ai/ha. An outline of the steps:
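Scoring used a 0 to 100 percent visual scale of growth reduction against solvent-treated controls, read 14 d after spraying. Applications went onto plants at first or second true leaf stage, 187 L/ha, with crop oil concentrate and X-77 surfactant in the carrier. Post-treatment watering was by subirrigation to avoid wash-off.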

Where [1] appears, read: ECHCG: barnyardgrass (Echinochloa crus-galli), 14 days after application, read-out: Visual Growth Reduction (%) 14 Days After Application, ECHCG.
[2] abbreviates: IPOHE: ivy-leaf morning glory (Ipomoea hederacea), 14 days after application, read-out: Visual Growth Reduction (%) 14 Days After Application, IPOHE.
Setting [3] is: KCHSC: kochia (Bassia scoparia), 14 days after application, read-out: Visual Growth Reduction (%) 14 Days After Application, KCHSC.
Setting [4] is: ORYSA: rice (Oryza sativa), 14 days after application, read-out: Visual Growth Reduction (%) 14 Days After Application, ORYSA.
The mark [5] stands for this setting: SETFA: giant foxtail (Setaria faberi), 14 days after application, read-out: Visual Growth Reduction (%) 14 Days After Application, SETFA.
Setting [6] is: SORVU: grain sorghum (Sorghum vulgare), 14 days after application, read-out: Visual Growth Reduction (%) 14 Days After Application, SORVU.
The mark [7] stands for this setting: STEME: common chickweed (Stellaria media), 14 days after application, read-out: Visual Growth Reduction (%) 14 Days After Application, STEME.
[8] abbreviates: TRZAS: wheat, spring (Triticum aestivum), 14 days after application, read-out: Visual Growth Reduction (%) 14 Days After Application, TRZAS.
Where [9] appears, read: blackgrass (Alopecurus myosuroides), 14 Days After Application, read-out: Visual Growth Reduction (%) ALOMY.
Setting [10] is: canada thistle (Cirsium arvense), 14 Days After Application, read-out: Visual Growth Reduction (%) CIRAR.
Setting [11] is: crabgrass (Digitaria sanguinalis), 14 Days After Application, read-out: Visual Growth Reduction (%) DIGSA.
Setting [12] is: lambsquarters (Chenopodium album), 14 Days After Application, read-out: Visual Growth Reduction (%) CHEAL.
The mark [13] stands for this setting: redroot pigweed (Amaranthus retroflexus), 14 Days After Application, read-out: Visual Growth Reduction (%) AMARE.
Where [14] appears, read: wild oat (Avena fatua), 14 Days After Application, read-out: Visual Growth Reduction (%) AVEFA.
Where [15] appears, read: yellow nutsedge (Cyperus esculentus), 14 Days After Application, read-out: Visual Growth Reduction (%) CYPES.

On to `COC(=O)c1nc(-c2cc(F)c(C(F)(F)F)cc2Cl)c(Cl)cc1Cl` [F246, Methyl 3,5-dichloro-6-(2-chloro-5-fluoro-4-(trifluoromethyl)phenyl)picolinate], for which the pest or weed control at 140 g/ha under setting [1] fell in the range of 0 to 29%; the pest or weed control at 140 g/ha under setting [2] was in the range of 95 to 100%; the pest or weed control at 140 g/ha under setting [3] lay in the range of 75 to 84%; the pest or weed control at 140 g/ha under setting [4] lay in the range of 0 to 29%; the pest or weed control at 140 g/ha under setting [5] is 75 to 84%; the pest or weed control at 140 g/ha under setting [6] fell in the range of 95 to 100%. Also, the pest or weed control at 140 g/ha was in the range of 0 to 29% under setting [7]; 0 to 29% under setting [8]; 45 to 59% under setting [9]; 75 to 84% under setting [10]; 85 to 94% under setting [11]; 95 to 100% under setting [12]. The pest or weed control at 140 g/ha is, setting by setting: under setting [13], 95 to 100%; under setting [14], 0 to 29%; under setting [15], 60 to 74%.

Consider `COC(=O)c1nc(-c2ccc(N)cc2)c(F)cc1Cl` [F247, Methyl 6-(4-aminophenyl)-3-chloro-5-fluoropicolinate], for which the pest or weed control at 140 g/ha fell in the range of 0 to 29% under setting [1]; 0 to 29% under setting [2]; 0 to 29% under setting [3]; 0 to 29% under setting [4]; 0 to 29% under setting [5]; 0 to 29% under setting [6]. The pest or weed control at 140 g/ha under setting [7] fell in the range of 0 to 29%; the pest or weed control at 140 g/ha under setting [8] lay in the range of 0 to 29%; the pest or weed control at 140 g/ha under setting [9] lay within 0 to 29%; the pest or weed control at 140 g/ha under setting [10] was in the range of 0 to 29%; the pest or weed control at 140 g/ha under setting [11] is 0 to 29%; the pest or weed control at 140 g/ha under setting [12] fell in the range of 60 to 74%. Also, the pest or weed control at 140 g/ha runs as follows: under setting [13], 0 to 29%; under setting [14], 0 to 29%; under setting [15], 0 to 29%.

For the compound `COC(=O)c1nc(-c2ccc(SC)cc2)c(F)cc1Cl` [F248, Methyl 3-chloro-5-fluoro-6-(4-(methylthio)phenyl) picolinate], the pest or weed control at 140 g/ha is, setting by setting: under setting [1], 0 to 29%; under setting [2], 30 to 44%; under setting [3], 0 to 29%; under setting [4], 0 to 29%; under setting [5], 0 to 29%; under setting [6], 0 to 29%. The pest or weed control at 140 g/ha under setting [7] was 0 to 29%; the pest or weed control at 140 g/ha under setting [8] was 0 to 29%; the pest or weed control at 140 g/ha under setting [9] was 0 to 29%; the pest or weed control at 140 g/ha under setting [10] is 0 to 29%; the pest or weed control at 140 g/ha under setting [11] was 60 to 74%; the pest or weed control at 140 g/ha under setting [12] is 0 to 29%. The pest or weed control at 140 g/ha reads like this: under setting [13], 0 to 29%; under setting [14], 0 to 29%; under setting [15], 0 to 29%.

As for `COC(=O)c1nc(-c2ccc(C)cc2)c(F)cc1Cl` [F249, Methyl 3-chloro-5-fluoro-6-(p-tolyl)picolinate], the pest or weed control at 140 g/ha is, setting by setting: under setting [1], 0 to 29%; under setting [2], 0 to 29%; under setting [3], 0 to 29%; under setting [4], 0 to 29%; under setting [5], 0 to 29%; under setting [6], 0 to 29%. In addition, the pest or weed control at 140 g/ha reads like this: under setting [7], 0 to 29%; under setting [8], 0 to 29%; under setting [9], 0 to 29%; under setting [10], 0 to 29%; under setting [11], 0 to 29%; under setting [12], 60 to 74%. Moreover, the pest or weed control at 140 g/ha under setting [13] is 0 to 29%, the pest or weed control at 140 g/ha under setting [14] fell in the range of 0 to 29% and the pest or weed control at 140 g/ha under setting [15] is 0 to 29%.

For `COC(=O)c1nc(-c2c(C)cc(C(F)(F)F)cc2Cl)ccc1Cl` [F250, Methyl 3-chloro-6-(2-chloro-6-methyl-4-(trifluoromethyl)phenyl) picolinate], the pest or weed control at 140 g/ha reads like this: under setting [1], 0 to 29%; under setting [2], 95 to 100%; under setting [3], 0 to 29%; under setting [4], 0 to 29%; under setting [5], 45 to 59%; under setting [6], 85 to 94%. The pest or weed control at 140 g/ha reads like this: under setting [7], 0 to 29%; under setting [8], 45 to 59%; under setting [9], 0 to 29%; under setting [10], 60 to 74%; under setting [11], 85 to 94%; under setting [12], 75 to 84%. For the same compound, the pest or weed control at 140 g/ha was 0 to 29% under setting [13], 0 to 29% under setting [14] and 0 to 29% under setting [15].

As for `C#Cc1cc(-c2nc(C(=O)OC)c(Cl)cc2F)c(Cl)cc1C(F)(F)F` [F251, Methyl 3-chloro-6-(2-chloro-5-ethynyl-4-(trifluoromethyl)phenyl)-5-yl) picolinate], the pest or weed control at 140 g/ha under setting [1] was 0 to 29%; the pest or weed control at 140 g/ha under setting [2] is 95 to 100%; the pest or weed control at 140 g/ha under setting [3] was in the range of 60 to 74%; the pest or weed control at 140 g/ha under setting [4] was 0 to 29%; the pest or weed control at 140 g/ha under setting [5] lay within 85 to 94%; the pest or weed control at 140 g/ha under setting [6] was in the range of 85 to 94%. Moreover, the pest or weed control at 140 g/ha reads like this: under setting [7], 0 to 29%; under setting [8], 0 to 29%; under setting [9], 0 to 29%; under setting [10], 85 to 94%; under setting [11], 75 to 84%; under setting [12], 95 to 100%. Moreover, the pest or weed control at 140 g/ha by setting is: under setting [13], 85 to 94%; under setting [14], 0 to 29%; under setting [15], 0 to 29%.

On to `O=C(O)c1nc(-c2ccc(C(F)(F)F)cc2Cl)ccc1[N+](=O)[O-]` [F252, 6-(2-Chloro-4-(trifluoromethyl)phenyl)-3-nitropicolinic acid], for which the pest or weed control at 140 g/ha reads like this: under setting [1], 0 to 29%; under setting [2], 30 to 44%; under setting [3], 0 to 29%; under setting [4], 0 to 29%; under setting [5], 0 to 29%; under setting [6], 45 to 59%. Further, the pest or weed control at 140 g/ha runs as follows: under setting [7], 0 to 29%; under setting [8], 0 to 29%; under setting [9], 0 to 29%; under setting [10], 0 to 29%; under setting [11], 30 to 44%; under setting [12], 60 to 74%. The pest or weed control at 140 g/ha was 0 to 29% under setting [13], 0 to 29% under setting [14] and 0 to 29% under setting [15].

As for `COC(=O)c1nc(-c2ccc(C(F)F)c(F)c2OC)c(F)cc1Cl` [F253, methyl 3-chloro-6-(4-(difluoromethyl)-3-fluoro-2-methoxyphenyl)-5-fluoropicolinate], the pest or weed control at 140 g/ha by setting is: under setting [1], 60 to 74%; under setting [2], 95 to 100%; under setting [3], 95 to 100%; under setting [4], 0 to 29%; under setting [5], 0 to 29%; under setting [6], 45 to 59%. For the same compound, the pest or weed control at 140 g/ha was in the range of 0 to 29% under setting [7]; 0 to 29% under setting [8]; 0 to 29% under setting [9]; 95 to 100% under setting [10]; 0 to 29% under setting [11]; 95 to 100% under setting [12]. Besides, the pest or weed control at 140 g/ha is, setting by setting: under setting [13], 95 to 100%; under setting [14], 0 to 29%; under setting [15], 0 to 29%.
